Patent US10052331B2, “3-(3H-imidazo[4,5-C]pyridin-2-yl)-1H-pyrazolo[3,4-C]pyridine and therapeutic uses thereof” (Samumed, LLC, priority 2014, dated 2018)

tested on: Wnt activity (Wnt-responsive Sp5 promoter-luciferase reporter in SW480 cells); experiment: Wnt activity screening assay: Sp5-Luc reporter gene in SW480 colon carcinoma cells; type: cell-based; conditions: Homo sapiens
Text: The screening assay for Wnt activity is described as follows. Reporter cell lines can be generated by stably transducing cancer cell lines (e.g., colon cancer) or primary cells (e.g., IEC-6 intestinal cells) with a lentiviral construct that includes a Wnt-responsive promoter driving expression of the firefly luciferase gene.
SW480 colon carcinoma cells were transduced with a lentiviral vector expressing luciferase with a human Sp5 promoter consisting of a sequence of eight TCF/LEF binding sites. SW480 cells stably expressing the Sp5-Luc reporter gene and a hygromycin resistance gene were selected by treatment with 150 μg/ml of hygromycin for 7 days. These stably transduced SW480 cells were expanded in cell culture and used for all further screening activities. For Sp5-Luc reporter gene assays, the cells were plated at 10,000 cells/well in 96-well plates with growth medium containing 10% fetal calf serum and incubated overnight at 37° C. and 5% CO2. Each compound was dissolved in DMSO as a 10 mM stock in standard j-vials and used to prepare compound source plates in dose-response format with 3-fold serial dilutions and a 10 mM top concentration. Compound transfer from serially diluted source plates to assay plates containing the cells was accomplished using a pintool (Multimek 96, Beckman equipped with V&P Scientific FP1S50H pins) based liquid handling protocol. This protocol used a slotted pin to transfer 50 nl of compound from a source plate well to an assay plate well containing 50 μl of cells in growth medium. […] Control wells received 50 nl of DMSO treatment for normalization and calculating IC50 values. The treated cells were incubated at 37° C. and 5% CO2 for an additional forty-two hours. Following incubation, the growth medium was removed and 50 μl of BrightGlo luminescence reagent (Promega) was added to each well of the 96-well assay plates. The plates were placed on an orbital shaker for 5 min and then luminescence was quantified on the Victor3 (Perkin Elmer) plate reader. Readings were normalized to DMSO only treated cells, and normalized activities were utilized for IC50 calculations using the dose-response log (inhibitor) vs. response-variable slope (four parameters) nonlinear regression feature available in GraphPad Prism 5.0 or 6.0.

For `CCC(=O)Nc1cncc(-c2cc3c(-c4nc5c(-c6cccc(F)c6)cncc5[nH]4)n[nH]c3cn2)c1` [Compound 1, N-(5-(3-(7-(3-Fluorophenyl)-3H-imidazo[4,5-c]pyridin-2-yl)-1H-pyrazolo[3,4-c]pyridin-5-yl)pyridin-3-yl)propionamide], which IC50 is on record?
Its IC50 is 61 nM.

How did the IC50 turn out when `CC(C)CC(=O)Nc1cncc(-c2cc3c(-c4nc5c(-c6cccc(F)c6)cncc5[nH]4)n[nH]c3cn2)c1` [Compound 2, N-(5-(3-(7-(3-Fluorophenyl)-3H-imidazo[4,5-c]pyridin-2-yl)-1H-pyrazolo[3,4-c]pyridin-5-yl)pyridin-3-yl)-3-methylbutanamide] was run?
The IC50 was 120 nM.

`CCCC(=O)Nc1cncc(-c2cc3c(-c4nc5c(-c6cccc(F)c6)cncc5[nH]4)n[nH]c3cn2)c1` [Compound 17, N-(5-(3-(7-(3-Fluorophenyl)-3H-imidazo[4,5-c]pyridin-2-yl)-1H-pyrazolo[3,4-c]pyridin-5-yl)pyridin-3-yl)butyramide] was tested. Which IC50 did it give?
Its IC50 is 17 nM.

How did the IC50 turn out when `O=C(Nc1cncc(-c2cc3c(-c4nc5c(-c6cccc(F)c6)cncc5[nH]4)n[nH]c3cn2)c1)C1CC1` [Compound 19, N-(5-(3-(7-(3-Fluorophenyl)-3H-imidazo[4,5-c]pyridin-2-yl)-1H-pyrazolo[3,4-c]pyridin-5-yl)pyridin-3-yl)cyclopropanecarboxamide] was run?
The IC50 was 21.6 nM.

How did the IC50 turn out when `CC(C)CC(=O)Nc1cncc(-c2cc3c(-c4nc5c(-c6ccc(F)cc6)cncc5[nH]4)n[nH]c3cn2)c1` [Compound 28, N-(5-(3-(7-(4-Fluorophenyl)-3H-imidazo[4,5-c]pyridin-2-yl)-1H-pyrazolo[3,4-c]pyridin-5-yl)pyridin-3-yl)-3-methylbutanamide] was run?
The IC50 was 170 nM.

Which IC50 does the source give for `CC(C)(C)C(=O)Nc1cncc(-c2cc3c(-c4nc5c(-c6ccc(F)cc6)cncc5[nH]4)n[nH]c3cn2)c1` [Compound 34, N-(5-(3-(7-(4-Fluorophenyl)-3H-imidazo[4,5-c]pyridin-2-yl)-1H-pyrazolo[3,4-c]pyridin-5-yl)pyridin-3-yl)pivalamide] here?
Its IC50 is 174 nM.

With `O=C(Nc1cncc(-c2cc3c(-c4nc5c(-c6ccc(F)cc6)cncc5[nH]4)n[nH]c3cn2)c1)C1CCC1` [Compound 46, N-(5-(3-(7-(4-Fluorophenyl)-3H-imidazo[4,5-c]pyridin-2-yl)-1H-pyrazolo[3,4-c]pyridin-5-yl)pyridin-3-yl)cyclobutanecarboxamide] as the compound, how does the IC50 read?
Its IC50 is 165 nM.

How did the IC50 turn out when `CC(C)C(=O)Nc1cncc(-c2cc3c(-c4nc5c(-c6ccccc6F)cncc5[nH]4)n[nH]c3cn2)c1` [Compound 61, N-(5-(3-(7-(2-Fluorophenyl)-3H-imidazo[4,5-c]pyridin-2-yl)-1H-pyrazolo[3,4-c]pyridin-5-yl)pyridin-3-yl)isobutyramide] was run?
The IC50 was 123 nM.

How did the IC50 turn out when `CC(C)(C)CC(=O)Nc1cncc(-c2cc3c(-c4nc5c(-c6ccccc6F)cncc5[nH]4)n[nH]c3cn2)c1` [Compound 68, N-(5-(3-(7-(2-Fluorophenyl)-3H-imidazo[4,5-c]pyridin-2-yl)-1H-pyrazolo[3,4-c]pyridin-5-yl)pyridin-3-yl)-3,3-dimethylbutanamide] was run?
The IC50 was 167 nM.

`CCCCC(=O)Nc1cncc(-c2cc3c(-c4nc5c(-c6ccccc6F)cncc5[nH]4)n[nH]c3cn2)c1` [Compound 70, N-(5-(3-(7-(2-Fluorophenyl)-3H-imidazo[4,5-c]pyridin-2-yl)-1H-pyrazolo[3,4-c]pyridin-5-yl)pyridin-3-yl)pentanamide] was tested. Which IC50 did it give?
The IC50 was 127 nM.

Which IC50 does the source give for `CC(C)C(=O)Nc1cncc(-c2cc3c(-c4nc5c(-c6cccnc6)cncc5[nH]4)n[nH]c3cn2)c1` [Compound 87, N-(5-(3-(7-(Pyridin-3-yl)-3H-imidazo[4,5-c]pyridin-2-yl)-1H-pyrazolo[3,4-c]pyridin-5-yl)pyridin-3-yl)isobutyramide] here?
The IC50 was > 10000 nM.

With `CC(C)Nc1cncc(-c2cc3c(-c4nc5c(-c6cccnc6)cncc5[nH]4)n[nH]c3cn2)c1` [Compound 90, N-Isopropyl-5-(3-(7-(pyridin-3-yl)-3H-imidazo[4,5-c]pyridin-2-yl)-1H-pyrazolo[3,4-c]pyridin-5-yl)pyridin-3-amine] as the compound, how does the IC50 read?
The IC50 was 93.5 nM.

For `CCCCC(=O)Nc1cncc(-c2cc3c(-c4nc5c(-c6ccoc6)cncc5[nH]4)n[nH]c3cn2)c1` [Compound 278, N-(5-(3-(7-(Furan-3-yl)-3H-imidazo[4,5-c]pyridin-2-yl)-1H-pyrazolo[3,4-c]pyridin-5-yl)pyridin-3-yl)pentanamide], which IC50 is on record?
Its IC50 is 115 nM.

For `CC(C)CC(=O)Nc1cncc(-c2cc3c(-c4nc5c(-c6cccs6)cncc5[nH]4)n[nH]c3cn2)c1` [Compound 288, 3-Methyl-N-(5-(3-(7-(thiophen-2-yl)-3H-imidazo[4,5-c]pyridin-2-yl)-1H-pyrazolo[3,4-c]pyridin-5-yl)pyridin-3-yl)butanamide], which IC50 is on record?
Its IC50 is 79 nM.

For `Fc1cccc(-c2cncc3[nH]c(-c4n[nH]c5cnc(-c6cn[nH]c6)cc45)nc23)c1` [Compound 887, 3-(7-(3-Fluorophenyl)-3H-imidazo[4,5-c]pyridin-2-yl)-5-(1H-pyrazol-4-yl)-1H-pyrazolo[3,4-c]pyridine], which IC50 is on record?
Its IC50 is 6 nM.

`Fc1cccc(-c2cncc3[nH]c(-c4n[nH]c5cnc(-c6cncc(OC7CCCCC7)c6)cc45)nc23)c1` [Compound 891, 5-(5-(Cyclohexyloxy)pyridin-3-yl)-3-(7-(3-fluorophenyl)-3H-imidazo[4,5-c]pyridin-2-yl)-1H-pyrazolo[3,4-c]pyridine] was tested. Which IC50 did it give?
Its IC50 is 735 nM.

`Fc1cccc(-c2cncc3[nH]c(-c4n[nH]c5cnc(-c6cncc(OC7CCNCC7)c6)cc45)nc23)c1` [Compound 892, 3-(7-(3-Fluorophenyl)-3H-imidazo[4,5-c]pyridin-2-yl)-5-(5-(piperidin-4-yloxy)pyridin-3-yl)-1H-pyrazolo[3,4-c]pyridine] was tested. Which IC50 did it give?
Its IC50 is > 10000 nM.

Which IC50 does the source give for `Fc1cccc(-c2cncc3[nH]c(-c4n[nH]c5cnc(-c6cncc(OCCN7CCCC7)c6)cc45)nc23)c1` [Compound 894, 3-(7-(3-Fluorophenyl)-3H-imidazo[4,5-c]pyridin-2-yl)-5-(5-(2-(pyrrolidin-1-yl)ethoxy)pyridin-3-yl)-1H-pyrazolo[3,4-c]pyridine] here?
Its IC50 is > 10000 nM.

With `Fc1cccc(-c2cncc3[nH]c(-c4n[nH]c5cnc(-c6cncc(OCc7ccccc7)c6)cc45)nc23)c1` [Compound 898, 5-(5-(Benzyloxy)pyridin-3-yl)-3-(7-(3-fluorophenyl)-3H-imidazo[4,5-c]pyridin-2-yl)-1H-pyrazolo[3,4-c]pyridine] as the compound, how does the IC50 read?
Its IC50 is 520 nM.

With `O=C(CC1CCCCC1)Nc1cncc(-c2cc3c(-c4nc5c(-c6cccc(F)c6)cncc5[nH]4)n[nH]c3cn2)c1` [Compound 899, 2-Cyclohexyl-N-(5-(3-(7-(3-fluorophenyl)-3H-imidazo[4,5-c]pyridin-2-yl)-1H-pyrazolo[3,4-c]pyridin-5-yl)pyridin-3-yl)acetamide] as the compound, how does the IC50 read?
Its IC50 is 1740 nM.

How did the IC50 turn out when `Fc1cccc(-c2cncc3[nH]c(-c4n[nH]c5cnc(-c6cnccn6)cc45)nc23)c1` [Compound 902, 3-(7-(3-Fluorophenyl)-3H-imidazo[4,5-c]pyridin-2-yl)-5-(pyrazin-2-yl)-1H-pyrazolo[3,4-c]pyridine] was run?
The IC50 was 50 nM.

With `CC(C)CC(=O)Nc1cncc(-c2cc3c(-c4nc5c(-c6cc(F)cc(OCCN(C)C)c6)cncc5[nH]4)n[nH]c3cn2)c1` [Compound 1192, N-(5-(3-(7-(3-(2-(Dimethylamino)ethoxy)-5-fluorophenyl)-3H-imidazo[4,5-c]pyridin-2-yl)-1H-pyrazolo[3,4-c]pyridin-5-yl)pyridin-3-yl)-3-methylbutanamide] as the compound, how does the IC50 read?
Its IC50 is > 10000 nM.

With `CC(C)CC(=O)Nc1cncc(-c2cc3c(-c4nc5c(-c6cc(F)cc(OCCN7CCCC7)c6)cncc5[nH]4)n[nH]c3cn2)c1` [Compound 1236, N-(5-(3-(7-(3-Fluoro-5-(2-(pyrrolidin-1-yl)ethoxy)phenyl)-3H-imidazo[4,5-c]pyridin-2-yl)-1H-pyrazolo[3,4-c]pyridin-5-yl)pyridin-3-yl)-3-methylbutanamide] as the compound, how does the IC50 read?
The IC50 was > 10000 nM.
